Data reported in PubChem BioAssay (NCI).
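Assay format: 96-well plates, 48-hour exposure. TGI is the concentration that stops growth completely.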

Tests used:
Experiment in all cases: DTP human tumour cell line panel, 48 h
786-0 renal = tested on: 786-0 renal
A498 renal = tested on: A498 renal
A549 NSCLC = tested on: A549 NSCLC
ACHN renal = tested on: ACHN renal
CAKI-1 renal = tested on: CAKI-1 renal
CCRF-CEM leukemia = tested on: CCRF-CEM leukemia
COLO 205 colon = tested on: COLO 205 colon
DLD-1 colon = tested on: DLD-1 colon
DMS 114 small cell lung = tested on: DMS 114 small cell lung
DMS 273 small cell lung = tested on: DMS 273 small cell lung
HCC-2998 colon = tested on: HCC-2998 colon
HCT-116 colon = tested on: HCT-116 colon
HCT-15 colon = tested on: HCT-15 colon
HL-60(TB) leukemia = tested on: HL-60(TB) leukemia
HOP-18 NSCLC = tested on: HOP-18 NSCLC
HOP-62 NSCLC = tested on: HOP-62 NSCLC
HOP-92 NSCLC = tested on: HOP-92 NSCLC
HT29 colon = tested on: HT29 colon
IGROV1 ovarian = tested on: IGROV1 ovarian
K-562 leukemia = tested on: K-562 leukemia
KM12 colon = tested on: KM12 colon
KM20L2 colon = tested on: KM20L2 colon
LOX IMVI melanoma = tested on: LOX IMVI melanoma
LXFL 529 NSCLC = tested on: LXFL 529 NSCLC
M14 melanoma = tested on: M14 melanoma
M19-MEL melanoma = tested on: M19-MEL melanoma
MALME-3M melanoma = tested on: MALME-3M melanoma
MOLT-4 leukemia = tested on: MOLT-4 leukemia
NCI-H226 lung = tested on: NCI-H226 lung
NCI-H460 lung = tested on: NCI-H460 lung
NCI-H522 lung = tested on: NCI-H522 lung
OVCAR-3 ovarian = tested on: OVCAR-3 ovarian
OVCAR-4 ovarian = tested on: OVCAR-4 ovarian
OVCAR-5 ovarian = tested on: OVCAR-5 ovarian
OVCAR-8 ovarian = tested on: OVCAR-8 ovarian
RPMI-8226 leukemia = tested on: RPMI-8226 leukemia
RXF 393 renal = tested on: RXF 393 renal
RXF-631 renal = tested on: RXF-631 renal
SF-268 CNS = tested on: SF-268 CNS
SF-295 CNS = tested on: SF-295 CNS
SF-539 CNS = tested on: SF-539 CNS
SK-MEL-2 melanoma = tested on: SK-MEL-2 melanoma
SK-MEL-28 melanoma = tested on: SK-MEL-28 melanoma
SK-MEL-5 melanoma = tested on: SK-MEL-5 melanoma
SK-OV-3 ovarian = tested on: SK-OV-3 ovarian
SN12C renal = tested on: SN12C renal
SNB-19 CNS = tested on: SNB-19 CNS
SNB-75 CNS = tested on: SNB-75 CNS
SNB-78 CNS = tested on: SNB-78 CNS
SR leukemia = tested on: SR leukemia
SW-620 colon = tested on: SW-620 colon
TK-10 renal = tested on: TK-10 renal
U251 CNS = tested on: U251 CNS
UACC-257 melanoma = tested on: UACC-257 melanoma
UACC-62 melanoma = tested on: UACC-62 melanoma
UO-31 renal = tested on: UO-31 renal
EKVX NSCLC = tested on: EKVX NSCLC
NCI-H23 lung = tested on: NCI-H23 lung
XF 498 CNS = tested on: XF 498 CNS

Measured: TGI

S=C1CNC(=S)CN1
not listed: EKVX NSCLC | NCI-H23 lung | XF 498 CNS
> 100 µM: all other assays above

CC(=O)N(/N=C\c1ccc([N+](=O)[O-])cc1)c1ccccc1
not listed: HL-60(TB) leukemia | LXFL 529 NSCLC | MOLT-4 leukemia | NCI-H522 lung | RXF 393 renal | SR leukemia
> 100 µM: all other assays above
